Measured values taken from patent US11077210B2, “Near-infrared fluorescent contrast bioimaging agents and methods of use thereof” (Beth Israel Deaconess Medical Center, priority 2013, dated 2021).

What was measured:
Format in all cases: in vivo
[1] = tested on: neuroendocrine tumors (insulinoma); assay: Neuroendocrine tumor NIR fluorescence imaging (FLARE); conditions: 25 g male insulinoma-bearing mouse, 140 nmol intravenously, 1 hour, pancreas imaged; Channel 1 (700 nm) or Channel 2 (800 nm)
Description: (§1) Absorbance and fluorescence emission spectra were measured using fiber optic HR2000 absorbance (200-1100 nm) and USB2000FL fluorescence (350-1000 nm) spectrometers (Ocean Optics, Dunedin, Fla.). Excitation was provided by a 532 nm green laser pointer (Opcom Inc., Xiamen, China) set to 5 mW, a 655 nm red laser pointer (Opcom Inc., Xiamen, China) set to 5 mW, or a 770 nm NIR laser diode light source (Electro Optical Components, Santa Rosa, Calif.) set to 10 mW and coupled through a 300 μm core diameter, NA 0.22 fiber (Fiberguide Industries, Stirling, N.J.). In silico calculations of the partition coefficient (log D at pH 7.4) and surface molecular charge and hydrophobicity were calculated using MarvinSketch 5.2.1 by taking major microspecies at pH 7.4 (ChemAxon, Budapest, Hungary). NIR Fluorescence Imaging System The dual-NIR channel FLARE′ imaging system has been described in detail previously (26-28). […] Color and two independent NIR fluorescence emission images (≈700 nm for Channel 1 and ≈800 nm for Channel 2) were acquired simultaneously with custom software at rates up to 15 Hz over a 15 cm diameter field of view. NIR fluorescence from Channel 1 was pseudo-colored in red and NIR fluorescence from Channel 2 was pseudo-colored in lime green prior to merger with the color video image. […] Animal Models and Intraoperative NIR Fluorescence Imaging […]

CSF = CSF NIR fluorescence imaging (FLARE); conditions: 35 kg female pig, 5 μmol intravenously, 4 hours; Channel 1 (700 nm) or Channel 2 (800 nm)
Description: as §1

Peyer's patches = Peyer's patches NIR fluorescence imaging (FLARE); conditions: 250 g male rat, 100 nmol intravenously, 4 hours; Channel 2 (800 nm)
Description: as §1

spinal cartilage = assay: Cartilage NIR fluorescence imaging (FLARE); conditions: 35 kg female pig, 5 μmol intravenously, 4 hours, Channel 1 (700 nm) or Channel 2 (800 nm)
Description: as §1

SLN = assay: Sentinel lymph node (SLN) NIR fluorescence imaging (FLARE); conditions: 35 kg female pig, 5 nmol subcutaneously into bowel, 5 min; Channel 1 (700 nm) or Channel 2 (800 nm)
Description: as §1

pan lymph nodes = assay: Pan lymph node NIR fluorescence imaging (FLARE); conditions: 250 g male rat, 20 nmol intravenously, 4 hours; Channel 1 (700 nm) or Channel 2 (800 nm)
Description: as §1

bone (rib cage) = assay: Bone NIR fluorescence imaging (FLARE); conditions: 35 kg female pig, 5 μmol intravenously, 4 hours, Channel 1 (700 nm) or Channel 2 (800 nm)
Description: as §1

ovaries = assay: Ovary NIR fluorescence imaging (FLARE); conditions: 25 g female mouse, 25 nmol intravenously, 4 hours; Channel 1 (700 nm) or Channel 2 (800 nm)
Description: as §1

gallbladder = assay: Gallbladder NIR fluorescence imaging (FLARE); conditions: 25 g male mouse, 25 nmol intravenously, 4 hours; Channel 1 (700 nm) or Channel 2 (800 nm)
Description: as §1

prostate = assay: Prostate NIR fluorescence imaging (FLARE); conditions: 25 g male mouse, 25 nmol intravenously, 4 hours; Channel 1 (700 nm) or Channel 2 (800 nm)
Description: as §1

brain vasculature = assay: Brain vasculature NIR fluorescence imaging (FLARE); conditions: 25 g male mouse, 25 nmol intravenously, 4 hours; Channel 1 (700 nm)
Description: as §1

## CN1/C(=C/C=C/C=C/C=C/C2=[N+](C)c3ccccc3C2(C)C)C(C)(C)c2ccccc21 [AL20]
[1]
  NIR fluorescence contrast of the tumors: highlighted with high contrast
CSF
  NIR fluorescence contrast of the CSF: highlighted with high contrast

## CC1(C)C(/C=C/C=C/C=C/C=C2/N(CCC[N+](C)(C)C)c3ccccc3C2(C)C)=[N+](CCC[N+](C)(C)C)c2ccccc21 [AL30]
Peyer's patches
  NIR fluorescence contrast of the Peyer's patches: highlighted with high contrast

## CN(C)c1ccc2nc3ccc(=[N+](C)C)cc-3oc2c1 [ESS61]
[1]
  NIR fluorescence contrast of the tumors: highlighted with high contrast

## CC1(C)C(/C=C/C2=C(Sc3ccc(CCN)cc3)C(=C/C=C3/N(CCC[N+](C)(C)C)c4ccc(S(=O)(=O)O)cc4C3(C)C)/CCC2)=[N+](CCC[N+](C)(C)C)c2ccc(S(=O)(=O)O)cc21 [LN50]
Spinal cartilage
  NIR fluorescence contrast of the cartilage: highlighted with high contrast

## CCN1/C(=C/C=C/C=C/C2=[N+](CC)c3ccc4ccccc4c3C2(C)C)C(C)(C)c2c1ccc1ccccc21 [MHI86]
SLN
  NIR fluorescence contrast of the SLN: highlighted with high contrast

## CC1(C)C(/C=C/C2=C(Oc3ccc(CCC(=O)O)cc3)C(=C/C=C3/N(CCC[N+](C)(C)C)c4ccccc4C3(C)C)/CCC2)=[N+](CCC[N+](C)(C)C)c2ccccc21 [MM25]
Pan lymph nodes
  NIR fluorescence contrast of all lymph nodes: highlighted with high contrast
SLN
  NIR fluorescence contrast of the SLN: highlighted with high contrast

## CC1(C)C(/C=C/C(C/C=C2/N(CCCP(=O)(O)O)c3ccc(S(=O)(=O)[O-])cc3C2(C)C)c2ccc(CCC(=O)O)cc2)=[N+](CCCP(=O)(O)O)c2ccc(S(=O)(=O)O)cc21 (centres unmarked) [P700SO3]
Bone (rib cage)
  NIR fluorescence contrast of the bone: highlighted with high contrast

## CCN(CC)c1ccc(/C=C/C2=CC(/C=C/c3ccc(N(CC)CC)cc3O)=[O+][B-](F)(F)O2)c(O)c1 [PS62]
ovaries
  NIR fluorescence contrast of the ovaries: highlighted with high contrast
gallbladder
  NIR fluorescence contrast of the gallbladder: highlighted with high contrast
prostate
  NIR fluorescence contrast of the prostate: highlighted with high contrast

## C[N+](C)(C)CCCN1/C(=C/C=C/C=C/c2sc3cc(O)ccc3[n+]2CCC[N+](C)(C)C)Sc2cc(O)ccc21 [SP56]
Spinal cartilage
  NIR fluorescence contrast of the cartilage: highlighted with high contrast

## CNCCCN1/C(=C/C=C/C=C/c2sc3cc(O)ccc3[n+]2CCCNC)Sc2cc(O)ccc21 [ZK214]
Brain vasculature
  NIR fluorescence contrast of the brain vasculature: highlighted with high contrast
